Data from ChEMBL document CHEMBL1136782, “Further studies on 2,4-diamino-5-(2',5'-disubstituted benzyl)pyrimidines as potent and selective inhibitors of dihydrofolate reductases from three major opportunistic pathogens of AIDS” (J Med Chem, 2003).

Assays:
[1] = biological target: T1, Bifunctional dihydrofolate reductase-thymidylate synthase (Toxoplasma gondii, UniProt Q07422)
T1 sequence (Q07422 whole entry): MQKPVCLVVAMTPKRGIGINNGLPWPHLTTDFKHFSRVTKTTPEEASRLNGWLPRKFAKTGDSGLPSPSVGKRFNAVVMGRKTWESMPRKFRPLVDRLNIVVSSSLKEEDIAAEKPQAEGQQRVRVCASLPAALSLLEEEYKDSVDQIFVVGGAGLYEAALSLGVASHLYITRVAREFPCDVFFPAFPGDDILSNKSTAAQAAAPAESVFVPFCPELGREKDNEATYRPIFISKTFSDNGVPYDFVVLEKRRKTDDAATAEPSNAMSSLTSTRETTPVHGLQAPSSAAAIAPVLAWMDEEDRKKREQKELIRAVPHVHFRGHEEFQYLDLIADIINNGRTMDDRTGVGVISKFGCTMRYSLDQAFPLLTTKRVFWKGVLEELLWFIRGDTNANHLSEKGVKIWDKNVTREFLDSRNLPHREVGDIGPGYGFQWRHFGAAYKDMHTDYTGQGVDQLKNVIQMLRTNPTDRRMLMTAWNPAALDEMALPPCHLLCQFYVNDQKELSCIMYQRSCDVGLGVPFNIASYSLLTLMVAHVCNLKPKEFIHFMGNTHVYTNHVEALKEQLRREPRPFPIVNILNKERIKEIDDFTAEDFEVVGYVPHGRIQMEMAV
Description: Inhibitory activity against Dihydrohydrofolate reductase(DHFR) of Toxoplasma gondii

Dihydrofolate reductase [2] = biological target: T2, Dihydrofolate reductase (Mycobacterium avium, UniProt O30463)
T2 sequence (O30463 whole entry): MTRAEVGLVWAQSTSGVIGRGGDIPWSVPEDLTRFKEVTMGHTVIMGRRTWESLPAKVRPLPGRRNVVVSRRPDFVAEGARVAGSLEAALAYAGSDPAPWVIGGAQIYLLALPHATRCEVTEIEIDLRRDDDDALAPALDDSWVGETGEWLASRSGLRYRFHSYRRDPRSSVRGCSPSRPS
Description: Inhibition of Dihydrohydrofolate reductase(DHFR) of Mycobacterium avium

[3] = Relative affinity for Dihydrofolate reductase of rat liver and Mycobacterium avium
Dihydrofolate reductase [4] = biological target: T3, Dihydrofolate reductase (Rattus norvegicus, UniProt Q920D2)
T3 sequence (Q920D2 whole entry): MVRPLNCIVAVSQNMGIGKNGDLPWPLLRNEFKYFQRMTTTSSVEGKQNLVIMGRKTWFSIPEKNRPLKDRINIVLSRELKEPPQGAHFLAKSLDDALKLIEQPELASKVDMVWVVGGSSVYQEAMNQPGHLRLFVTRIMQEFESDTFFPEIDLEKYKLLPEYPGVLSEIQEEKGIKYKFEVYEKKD
Description: Inhibitory activity against Dihydrohydrofolate reductase (DHFR) of rat

Compound | IC50 [1] [nM] | further results
Nc1nc(N)c2nc(C(=O)c3ccccc3)c(-c3ccccc3)nc2n1 | 860 | –
COc1ccc(C#CCCCC(=O)O)cc1Cc1cnc(N)nc1N | – | IC50 (Dihydrofolate reductase [2]): 7.8 nM
Nc1nc(N)c2nc(-c3ccccc3)c(-c3ccccc3)nc2n1 | 240 | –
Nc1nc(N)c2nc(CCSc3ccccc3)cnc2n1 | 770 | –
COc1ccc(C#CCOc2ccccc2C(=O)O)cc1Cc1cnc(N)nc1N | – | Selectivity index [3]: 170
COc1cc(Cc2cnc(N)nc2N)cc(OC)c1-n1cccc1 | 470 | –
Nc1nc(N)c2c(CNc3cccc4c3CCCC4)c[nH]c2n1 | 1100 | –
Cc1cccc(-c2nc3c(N)nc(N)nc3nc2N)c1 | 18 | –
COc1ccc(OCCCC(=O)O)cc1Cc1cnc(N)nc1N | – | IC50 (Dihydrofolate reductase [4]): 2700 nM
